Measurements taken from patent US20260356823A1, “SODIUM CHANNEL REGULATOR AND USE THEREOF” (SHANGHAI HUILUN PHARMACEUTICAL CO., LTD., priority 2022, published 2026).
pIC50: −log10 of the molar value.

Key:
Nav1.8 = conditions: background; cited from earlier work
[1] = background; cited from earlier work
[2] = Efficacy on a mouse model of incisional pain, mechanical pain threshold (PWT); assay type: in vivo; conditions: intravenous
From the text: Bioactivity Test 3: Efficacy of the Compound on a Mouse Model of Incisional Pain
Model establishment: Through isoflurane anesthesia and routine disinfection, a 0.5 cm longitudinal skin incision extending to the toe was made with a blade on the plantar surface of the left hindfoot about 0.2 cm distal to the joint; and the plantar muscle was separated, slightly elevated, and then incised longitudinally, taking care not to disrupt the muscle origin. The incision was sutured horizontally and interruptedly with 5-0 nylon thread (2 sutures).
Solvents: A solvent for the test compound was 5% DMSO+10% Solutol+85% Saline, and a solvent for a positive compound TRV-130 was 10% ethanol+10% cremophor+80% water. […]
Mechanical pain threshold measurement: Before modeling, a pre-modeling mechanical pain threshold was measured. At 2.5 h after modeling, a pre-administration mechanical pain threshold was measured. Oral administration was carried out after the measurement, and a mechanical pain threshold was measured at 2 h after the administration. […] Each animal was measured three times at intervals of 3-5 minutes, and an average value was calculated.
Data analysis: Relevant data was organized in Office Excel 2013 and GraphPad Prism 6.0. Data was expressed as Mean±SEM (standard error). […]

human Nav1.8 = molecular target: T1, human Nav1.8 (Homo sapiens, UniProt Q9Y5Y9); experiment: In vitro inhibition of Nav1.8, manual patch clamp on HEK293 cells stably expressing human Nav1.8; assay type: cell-based; conditions: human Nav1.8, manual patch clamp; for inhibition at 0.1 µM: HEK293, 100 nM, read-out: Inhibitory activity (inhibition/% at 100 nM concentration)
T1 construct: expressed in transfected cells
Protocol: Bioactivity Test 1: In Vitro Inhibition of Nav1.8 by the Compound
By using a manual patch clamp on HEK293 cells stably expressing human Nav1.8, currents on Nav1.8 before and after administration of the compound were compared after the currents on Nav1.8 were stable, to obtain the effect of the compound on the Nav1.8 channel.
The to-be-tested compound was dissolved in DMSO to prepare a 9 mM stock solution, which was taken and dissolved in extracellular fluid at a desired concentration on the day of testing. The extracellular fluid included the following ingredients (mM): NaCl, 137; KCl, 4; CaCl2, 1.8; MgCl2, 1; HEPES, 10; glucose, 10; and pH 7.4 (NaOH titration). All reagents were purchased from Sigma (St. Louis, MO).
The cells were clamped at −80 mV and depolarized with a sustained 10 ms square wave to 10 mV to obtain a current on Nav1.8. This process was repeated every 5 seconds. A maximum current caused by the square wave was detected. After the current is stable, the to-be-tested compound (dissolved in the extracellular fluid at the desired concentration) was perfused. After the current is stable, the strength of blocking Nav1.8 by the compound was calculated based on the currents before and after perfusion of the compound. pCLAMP 10 (Molecular Devices, Union City, CA) was used. That the current is stable means that the current changes over time within a limited range.

Nav1.8 sodium channel = molecular target: T2, Nav1.8 sodium channel (Homo sapiens, UniProt Q9Y5Y9); experiment: In vitro inhibition IC50 of Nav1.8, whole-cell patch clamp on CHO cell line stably expressing Nav1.8 (SCN10A, NM_006514); assay type: cell-based; conditions: CHO cells stably expressing Nav1.8, whole-cell patch clamp, room temperature
T2 construct: expressed in transfected cells
From the text: Bioactivity Test 2: In Vitro Inhibition IC50 of Nav1.8 by the Test Compound
A CHO cell line stably expressing the Nav1.8 sodium channel was used for experimental assays with the following gene information: Sodium channel, voltage-gated, type 8, alpha (SCN10A), cDNA strictly similar to GenBank accession number: NM_006514.
Before the patch clamp assay, the cells were detached with 0.25%-Trypsin-EDTA, and 6.5×10^3 cells were spread onto cover slips and cultured in a 24-well plate (final volume: 500 μL) for 18 h. Then, the assay was carried out.
Fluids for electrophysiological recording included: extracellular fluid: K-007-1, 140 mM NaCl, 3.5 mM KCl, 1 mM MgCl2·6H2O, 2 mM CaCl2·2H2O, 10 mM D-Glucose, 10 mM HEPES, 1.25 mM NaH2PO4·2H2O, and NaOH for adjustment to pH=7.4; and intracellular fluid: Nav-001-2, 50 mM CsCl, 10 mM NaCl, 10 mM HEPES, 60 mM CsF, 20 mM EGTA, and […]. The extracellular fluid was stored for 2 weeks. The intracellular fluid was prepared and dispensed as 1 mL per tube, and frozen in a refrigerator at −20° C. Freshly thawed intracellular fluid was used for daily experiments. All intracellular fluids have to be used up within three months. Beyond three months, the old intracellular fluid has to be discarded, and the intracellular fluid needs to be prepared again.
Patch clamp assay: Whole-cell patch-clamp recording Nav1.8 sodium currents under voltage stimulation was carried out as follows: When a whole-cell seal was formed, the cell was clamped at a voltage of −120 mV and maintained for 30 ms. The cell was depolarized from the clamping voltage to 0 mV and maintained for 50 ms. Then, the voltage was restored to −50 mV (for a specific voltage, refer to a half-inactivation voltage from an IV test) and maintained for 5 s. Next, the cell membrane potential was restored to −120 mV and maintained for 20 ms. Then, the cell was depolarized to 0 mV and maintained for 50 ms. Finally, the voltage was restored to the clamping voltage −120 mV and maintained for 30 ms. Data was collected at […]. The effect of the drug on a peak sodium current was observed. Experimental data was collected by an EPC 10 amplifier (HEKA) and stored in PatchMaster (HEKA) software.
A capillary glass tube was pulled into a recording electrode by using a microelectrode puller. The electrode filled with the intracellular fluid was loaded into an electrode holder. A microelectrode manipulator was manipulated under an inverted microscope to immerse the electrode into the extracellular fluid, and an electrode resistance (Rpip) was recorded. The electrode was brought into contact with the cell surface, and suction was applied under negative pressure to form a high-resistance seal (GQ). In this case, fast capacitance compensation was carried out, and negative pressure was then applied to break the cell membrane through suction to form a whole-cell recording mode. Then, slow capacitance compensation was carried out, and experimental parameters such as a membrane capacitance (Cm) and a series resistance (Rs) were recorded. No leakage compensation was carried out.
The drug was administered after the Nav1.8 current obtained by whole-cell recording. The drug acted at each concentration for 5 min (or until the current was stable), and then the drug was tested at a next concentration. Each test compound was tested for multiple concentrations. The cover slips with the cells spread were placed in a recording bath under an inverted microscope. A blank control extracellular fluid and a working solution of the to-be-tested compound were perfused by gravity through the recording bath into the cells from low concentration to high concentration. Fluid exchange was carried out by using a peristaltic pump during the recording. A current detected for each cell in the compound-free extracellular fluid served as its own control. For each concentration, at least three cells were tested independently for three times. […]

T2 sequence (Q9Y5Y9 whole entry): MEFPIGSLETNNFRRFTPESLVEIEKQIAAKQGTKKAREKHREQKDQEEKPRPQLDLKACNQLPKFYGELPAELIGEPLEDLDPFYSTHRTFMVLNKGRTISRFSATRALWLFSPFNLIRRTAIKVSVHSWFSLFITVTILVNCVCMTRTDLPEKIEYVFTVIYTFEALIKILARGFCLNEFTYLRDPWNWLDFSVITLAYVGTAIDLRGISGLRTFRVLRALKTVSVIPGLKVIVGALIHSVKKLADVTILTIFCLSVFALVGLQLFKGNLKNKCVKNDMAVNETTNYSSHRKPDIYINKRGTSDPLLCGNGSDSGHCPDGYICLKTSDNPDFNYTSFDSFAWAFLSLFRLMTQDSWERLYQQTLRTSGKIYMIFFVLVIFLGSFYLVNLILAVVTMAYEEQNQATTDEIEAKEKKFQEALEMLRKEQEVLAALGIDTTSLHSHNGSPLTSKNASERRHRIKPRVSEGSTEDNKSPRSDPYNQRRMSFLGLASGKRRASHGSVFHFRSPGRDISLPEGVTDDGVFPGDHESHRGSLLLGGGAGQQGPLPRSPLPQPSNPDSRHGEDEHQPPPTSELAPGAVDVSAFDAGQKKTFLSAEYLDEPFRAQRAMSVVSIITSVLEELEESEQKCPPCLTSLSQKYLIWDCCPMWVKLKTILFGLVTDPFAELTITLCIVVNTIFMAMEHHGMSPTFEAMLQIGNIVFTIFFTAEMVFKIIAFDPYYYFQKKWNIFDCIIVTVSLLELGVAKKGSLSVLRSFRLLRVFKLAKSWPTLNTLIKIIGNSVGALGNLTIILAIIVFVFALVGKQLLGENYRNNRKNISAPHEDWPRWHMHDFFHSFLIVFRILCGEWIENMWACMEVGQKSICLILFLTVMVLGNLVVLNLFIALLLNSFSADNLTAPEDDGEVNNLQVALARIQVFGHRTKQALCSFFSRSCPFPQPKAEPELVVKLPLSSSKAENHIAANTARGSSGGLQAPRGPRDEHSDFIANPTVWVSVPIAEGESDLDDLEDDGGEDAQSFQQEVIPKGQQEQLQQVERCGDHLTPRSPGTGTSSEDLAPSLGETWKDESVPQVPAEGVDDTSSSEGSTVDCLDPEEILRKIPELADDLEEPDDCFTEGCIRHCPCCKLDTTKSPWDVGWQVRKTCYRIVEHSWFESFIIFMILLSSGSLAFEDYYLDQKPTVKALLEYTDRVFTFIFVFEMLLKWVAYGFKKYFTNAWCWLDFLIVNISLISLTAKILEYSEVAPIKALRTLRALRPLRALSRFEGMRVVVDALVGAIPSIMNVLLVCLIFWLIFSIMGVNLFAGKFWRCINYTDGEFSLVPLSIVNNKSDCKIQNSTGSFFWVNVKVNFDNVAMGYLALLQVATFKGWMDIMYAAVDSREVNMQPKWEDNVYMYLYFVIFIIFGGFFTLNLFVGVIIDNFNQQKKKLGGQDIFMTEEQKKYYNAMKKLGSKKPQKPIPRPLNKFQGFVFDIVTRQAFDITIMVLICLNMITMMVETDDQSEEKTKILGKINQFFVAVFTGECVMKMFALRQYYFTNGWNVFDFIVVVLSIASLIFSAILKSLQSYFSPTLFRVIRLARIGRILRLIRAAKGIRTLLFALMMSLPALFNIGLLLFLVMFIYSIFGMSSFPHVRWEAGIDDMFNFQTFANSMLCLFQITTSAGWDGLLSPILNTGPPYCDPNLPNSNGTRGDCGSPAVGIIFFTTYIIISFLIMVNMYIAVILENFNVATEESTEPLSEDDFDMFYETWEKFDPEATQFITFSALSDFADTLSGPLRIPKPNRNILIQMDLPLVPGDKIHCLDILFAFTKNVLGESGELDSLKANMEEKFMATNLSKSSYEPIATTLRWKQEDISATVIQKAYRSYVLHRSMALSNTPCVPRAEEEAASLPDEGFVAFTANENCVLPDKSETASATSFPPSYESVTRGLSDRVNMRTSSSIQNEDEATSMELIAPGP
T1 sequence (Q9Y5Y9 whole entry): as above

Compound | selectivity (in words) (Nav1.8) | bioavailability (in words) [1] | pharmacokinetic data (in words) [1] | inhibition at 0.1 µM (human Nav1.8) [%] | pIC50 (Nav1.8 sodium channel) | further results
COc1cc(NC(=O)c2ccc(-c3ccc(Cl)cc3)o2)cc(OC)c1 [Example A-803467] | poor selectivity | low bioavailability | poor pharmacokinetic data |  |  | 
CNC(=O)c1ccc(-c2cc(Cl)cc(Cl)c2Cl)c(N)n1 [PF-01247324] | poor selectivity | low bioavailability | poor pharmacokinetic data |  |  | 
COc1ccsc1CNCC[C@@]1(c2ccccn2)CCOC2(CCCC2)C1 [TRV-130] |  |  |  |  |  | PWT after modeling ([2]; TRV-130 0.5 mg/kg group, after modeling, pre-administration, 2.5 h after modeling): 5.40 g; PWT 2 h after administration ([2]; TRV-130 0.5 mg/kg, 2 h after administration): 8.94 g
C[C@@H](C(N)=O)[C@H](N)c1nc2ccc(C(C)(C)C)cc2[nH]1 [PF-06305591] | poor selectivity | low bioavailability | poor pharmacokinetic data |  |  | 
[2H]C([2H])([2H])NS(=O)(=O)c1cc(NC(=O)[C@@H]2O[C@@](C)(C(F)(F)F)[C@@H](C)[C@H]2c2ccc(F)c(F)c2OC)ccn1 (relative stereo) [Example 82, rel-(2R,3S,4S,5R)-3-(3,4-difluoro-2-methoxyphenyl)-4,5-dimethyl-N-(2-(N-(methyl-d3)sulfamoyl)pyridin-4-yl)-5-(trifluoromethyl)tetrahydrofuran-2-carboxamide] |  |  |  | ≥ 50 | > 9.00 | 
COc1c([C@H]2[C@H](C(=O)Nc3ccc4c(c3)NC(=O)C4)O[C@@](C)(C(F)(F)F)[C@H]2C)ccc(F)c1F (relative stereo) [Example 2] |  |  |  | ≥ 50 | 7.17 | 
COc1c([C@H]2[C@H](C(=O)Nc3ccnc(C(N)=O)c3)OC3(C(F)(F)F)CCC23C)ccc(F)c1F (relative stereo) [Example 59, rel-(2R,3S)-4-({[3-(3,4-difluoro-2-methoxyphenyl)-3a-methyl-5a-(trifluoromethyl)hexahydrocyclobuta[2,1-b]furan-2-yl]carbonyl}amino)pyridin-2-carboxamide] |  |  |  | ≥ 50 | 8.70 | 
COc1c([C@H]2[C@H](C(=O)Nc3ccc4cn[nH]c(=O)c4c3)O[C@@](C)(C(F)(F)F)[C@H]2C)ccc(F)c1F (relative stereo) [Example 3, rel-(2R,3S,4S,5R)-3-(3,4-difluoro-2-methoxyphenyl)-4,5-dimethyl-N-4-oxa-3,4-dihydrophthalazin-6-yl)-5-(trifluoromethyl)tetrahydrofuran-2-carboxamide] |  |  |  | ≥ 50 | 8.05 | 
COc1c(C2C(C(=O)Nc3ccc(C(N)=O)c(C(N)=O)c3)OC(C)(C(F)(F)F)C2C)ccc(F)c1F (single isomer, unassigned) [Example 30-2] |  |  |  |  | > 9.30 | Inhibitory activity (inhibition/% at 100 nM concentration) (human Nav1.8; 100 nM, 0.1 µM): A (A ≥ 50)
